Results taken from patent US5422353A, “Tetrahydropyridine derivatives” (Boehringer Ingelheim KG, priority 1988, dated 1995).

Experiments:
[1] = system: conscious rabbit; assay: arousal reaction in the EEG (electroencephalograph) of a conscious rabbit; format: in vivo
[2] = target: muscarinic receptors; assay: Receptor binding studies (radioligand L(+)cis-[2-methyl-3H]-N,N,N-trimethyl-1,3-dioxolan-4-methanammonium-iodide, NET-647); settings: cerebral cortex (rat); radioligand NET-647; tested as maleate (MA) or oxalate (OX) salt
Protocol: The compounds of formulae I and Ia have valuable pharmacological properties. Thus, in bonding studies, they show affinities with muscarinic receptors and muscarbin-agonistic GTP-shifts (GTP=guanosintriphosphate). (Birdshall, N. I. M., E. C. Hulme and J. M. Stockton 1984 in T.I.P.S. Supplement, Proc. Internat. Symposium on Subtypes of Muscarinic Receptors, Ed. Hirschowitz, Hammer, Giacchetti, Keirns, Levine; Elsevier p. 4-8).
The receptor binding studies were carried out according to: A. Closse, H. Bittiger, D. Langenegger and A. Wanner, Naunyn-Schmiedeberg's Arch. Pharmacol. 335, 372-377 (1987).
Receptor binding studies
L(+)cis-[2-methyl-^3 H]-N,N,N-trimethyl-
1,3-dioxolan-4-methanammonium-iodide
NET-647, Messrs. NEN (New England
Organ: Cerebral cortex (rat)

SMILES: CCOCC1=CCN(C)CC1 [Example 2, 4-Ethoxymethyl-1-methyl-1,2,3,6-tetrahydropyridine]
- arousal reaction typical of cholinomimetics in the EEG ([1]; 1 mg/kg and 3 mg/kg i.v.): exhibit an arousal reaction typical of cholinomimetics
- Ki [2]: 210 nM

SMILES: COCCC1=CCN(C)CC1 [OX, 4-(methoxyethyl)-1-methyl-1,2,3,6-tetrahydropyridine]
- Ki [2]: 3900 nM

SMILES: CSCC1=CCN(C)CC1 [Example 13, 1-Methyl-4-[(methylthio)methyl]-1,2,3,6-tetrahydropyridine]
- arousal reaction typical of cholinomimetics in the EEG ([1]; 0.1 mg/kg and 0.3 mg/kg i.v.): exhibit an arousal reaction typical of cholinomimetics
- Ki [2]: 15 nM

SMILES: CCSCC1=CCN(C)CC1 [Example 4, 4-[(Ethylthio)methyl]-1-methyl-1,2,3,6-tetrahydropyridine]
- Ki [2]: 8.3 nM

SMILES: CCCOCC1=CCN(C)CC1 [Example 9, 1-Methyl-4-propoxymethyl-1,2,3,6-tetrahydropyridine]
- Ki [2]: 140 nM
